Measurements: US20030013660A1, “Dioxolane analogs for improved inter-cellular delivery” (Shire BioChem Inc., priority 2000, published 2003)
Where two headings read alike, the source gives them in different places.

Assays:
Assay in all cases: 3H-TdR (3H-thymidine) incorporation assay at 72 hr
H-460 = format: cell-based, Human; conditions: Homo sapiens
MCF-7 = format: cell-based, Human; conditions: Homo sapiens
SF-268 = format: cell-based, Human; conditions: Homo sapiens
CCRF-CEM = format: cell-based; conditions: Homo sapiens, CCRF-CEM
Experimental: (§1) Table of IC50 Values (μM) for Controls
(§2) Exposition of 24 hr to drug, wash, incubated for another 48 hr (total of 72 hr assay)
(§3) (3H-Thymidine Incorporation Assay)

CEM/dCK- = format: cell-based; conditions: for IC50: Homo sapiens, CCRF-CEM; for Factor* (Resistance Factor = Ratio of dCK- on Wild-type CCRF-CEM): ratio of IC50 CEM/dCK- to CCRF-CEM, 24 h
Experimental: as §1, §2, §3

[1] = NCI-H460, read-out: IC50 H-460 24 h
[2] = MCF7, read-out: IC50 MCF-7 24 h
[3] = SF-268, read-out: IC50 SF-268 24 h
[4] = NCI-H460, read-out: IC50 H-460 24 h, 24 h drug exposure, wash, another 48 hr, 3H-TdR incorporation at 72 hr
[5] = MCF7, read-out: IC50 MCF-7 24 h, 24 h drug exposure, wash, another 48 hr, 3H-TdR incorporation at 72 hr
[6] = SF-268, read-out: IC50 SF-268 24 h, 24 h drug exposure, wash, another 48 hr, 3H-TdR incorporation at 72 hr
[7] = read-out: IC50 CCRF-CEM 24 h, 24 h drug exposure, wash, another 48 hr, 3H-TdR incorporation at 72 hr
[8] = read-out: IC50 CEM/dCK- 24 h, 24 h drug exposure, wash, another 48 hr, deoxycytidine kinase-deficient CCRF-CEM

| IC50 (H-460; [4]) | IC50 (MCF-7; [5]) | IC50 (SF-268; [6]) | IC50 (CCRF-CEM; [7]) | IC50 (CEM/dCK-; [8]) | Structure (SMILES) | IC50 (H-460; [1]) | IC50 (MCF-7; [2]) | IC50 (SF-268; [3]) | IC50 (CCRF-CEM; read-out: IC50 CCRF-CEM 24 h) | IC50 (CEM/dCK-; read-out: IC50 CEM/dCK- 24 h) | Factor* (Resistance Factor = Ratio of dCK- on Wild-type CCRF-CEM) (CEM/dCK-) |
| --- | --- | --- | --- | --- | --- | --- | --- | --- | --- | --- | --- |
| – | – | – | – | – | COc1ccc(OC(=O)Nc2ccn([C@@H]3CO[C@H](COC(=O)Oc4ccc(OC)cc4)O3)c(=O)n2)cc1 [Compound 63] | 110 nM | 370 nM | 76 nM | 36 nM | > 100000 nM | 2,778 |
| 1.7 nM | 4.4 nM | 7.1 nM | 1.8 nM | 3600 nM | CCCCC(C)C(=O)OC[C@H]1OC[C@@H](n2ccc(/N=C/N(C)C)nc2=O)O1 (stereo partly drawn) [Compound 64, (2S,4S)-2-(2″-METHYL- HEXANOICOXYMETHYL)-4- (4′-NN- DIMETHYLAMINOMETHYLENE- CYTOSIN-1′-YL)-1,3- DIOXOLANE] | – | – | – | – | – | 2,000 |
| 11 nM | 12 nM | 33 nM | 3.9 nM | 26000 nM | CCCCC(CC)C(=O)OC[C@H]1OC[C@@H](n2ccc(/N=C/N(C)C)nc2=O)O1 (stereo partly drawn) [Compound 65, (2S,4S)-2-(2″-ETHYL- HEXANOICOXYMETHYL)-4- (4′-N,N- DIMETHYLAMINOMETHYLENE- CYTOSIN-1′-YL)-1,3- DIOXOLANE] | – | – | – | – | – | 6,667 |
| 310 nM | 130 nM | 810 nM | 180 nM | > 100000 nM | CCCCCOC(=O)Nc1ccn([C@@H]2CO[C@H](CO)O2)c(=O)n1 [Compound 71, [1-(2-HYDROXYMETHYL- [1,3]DIOXOLAN-4-YL)-2- OXO-1,2-DIHYDRO- PYRIMIDIN-4-YL]- CARBAMIC ACID PENTYL ESTER] | – | – | – | – | – | 556 |
| – | – | – | – | – | COc1ccc(OC(=O)Nc2ccn([C@@H]3CO[C@H](CO)O3)c(=O)n2)cc1 [Compound 73, [1-(2-HYDROXYMETHYL- [1,3]DIOXOLAN-4-YL)-2- OXO-1,2-DIHYDRO- […]-4-YL]- CARBAMIC ACID 4- METHOXY-PHENYL ESTER] | 270 nM | 260 nM | 30 nM | 100 nM | 99000 nM | 990 |
| 59 nM | 30 nM | 380 nM | 54 nM | 74000 nM | CC(C)(C)OC(=O)N(CCCCCC(=O)Nc1ccn([C@@H]2CO[C@H](CO)O2)c(=O)n1)Cc1ccccc1 [Compound 77, Benzyl-{5-[1-(2-hydroxymethyl-[1,3]dioxolan-4-yl)-2-oxo-1,2-dihydro-pyrimidin-4-ylcarbamoyl]-pentyl}-carbamic acid tert-butyl ester] | – | – | – | – | – | 1,370 |
| – | – | – | – | – | N=C(OC[C@H]1OC[C@@H](n2ccc(N)nc2=O)O1)C(Cl)(Cl)Cl [Compound 79] | 120 nM | 170 nM | 160 nM | 14 nM | – | 4,500 |
| 1800 nM | 670 nM | 3500 nM | 460 nM | > 100000 nM | COC(=O)CCCC(=O)Nc1ccn([C@@H]2CO[C@H](COC(=O)CCCC(=O)OC)O2)c(=O)n1 [Compound 80, PENTANEDIOIC ACID 4-[4- (4-METHOXYCARBONYL- BUTYRYLAMINO)-2-OXO- 2#H!-PYRIMIDIN-1-YL]- [1,3]DIOXOLAN-2- YLMETHYL ESTER METHYL ESTER] | – | – | – | – | – | 217 |

| Structure (SMILES) | IC50 (H-460; [4]) | IC50 (MCF-7; [5]) | IC50 (SF-268; [6]) | IC50 (CCRF-CEM; [7]) | IC50 (CEM/dCK-; [8]) | IC50 (H-460; [1]) | IC50 (MCF-7; [2]) | IC50 (SF-268; [3]) | IC50 (CCRF-CEM; read-out: IC50 CCRF-CEM 24 h) | IC50 (CEM/dCK-; read-out: IC50 CEM/dCK- 24 h) | Factor* (Resistance Factor = Ratio of dCK- on Wild-type CCRF-CEM) (CEM/dCK-) |
| --- | --- | --- | --- | --- | --- | --- | --- | --- | --- | --- | --- |
| CC(C)OC(=O)OCOC[C@H]1OC[C@@H](n2ccc(N)nc2=O)O1.O=C(O)C(F)(F)F [Compound 68, CARBONIC ACID 4-(4- AMINO-2-OXO-2H- PYRIMIDIN-1-YL)- [1,3]DIOXOLAN-2- YLMETHOXYMETHYL ESTER ISOPROPYL ESTER TRIFLUOROACETIC ACID SALT] | 19 nM | 76 nM | 210 nM | 30 nM | > 100000 nM | – | – | – | – | – | 3,333 |
| CC(C(=O)OC[C@H]1OC[C@@H](n2ccc(/N=C/N(C)C)nc2=O)O1)c1ccccc1 (stereo partly drawn) [Compound 70, (2S,4S)-2-(2″- METHYLPHENYLACETOXY)MET HYL-4-(4′-N,N- DIMETHYLAMINOMETHYLENE- CYTOSIN-1′-YL)-1,3- DIOXOLANE] | 36 nM | 47 nM | 270 nM | 8.8 nM | 30000 nM | – | – | – | – | – | 3,409 |
| CC(C)(C)OC(=O)N(CCCCCC(=O)Nc1ccn([C@@H]2CO[C@H](COC(=O)CCCCCN(Cc3ccccc3)C(=O)OC(C)(C)C)O2)c(=O)n1)Cc1ccccc1 [Compound 78, 6-(Benzyl-tert-butoxycarbonyl-amino)-hexanoic acid 4-{4-[6-(benzyl-tert-butoxycarbonyl-amino)-hexanoylamino]-2-oxo-2H-pyrimidin-1-yl}-[1,3]dioxolan-2-ylmethyl ester] | 42 nM | 45 nM | 95 nM | 37 nM | 13000 nM | – | – | – | – | – | 351 |
